By half-life is commonly meant how long it takes for the measured level to halve.

The source made the active and inactive calls. The calls are words filed in the database; no cut-off is given here.

The record followed here is ChEMBL document CHEMBL1138076, “Synthesis and biological evaluation of lisofylline (LSF) analogs as a potential treatment for Type 1 diabetes” (Bioorg Med Chem Lett, 2006).

One data set relates to Pancreatic beta cell. Nature of the data set: Protection of cytokine-induced death of pancreatic beta cells at 0.1 uM. The format is functional, cell-based. The conditions noted are these: Mus musculus.
The subject of a further data set is INS1. Nature of the data set: Secretion of insulin in INS1 cells at 20 uM. The class given is functional, cell-based. The conditions noted are these: Rattus norvegicus.
A short description of data set [1]: Stability in human liver microsomes at […] at pH 7.4. The class given is ADME, Microsome. To be noted: read-out: Stability.
Data set [2] is described as follows: Half life in human liver. The class given is ADME, organism-based.

Regarding `C[C@@H](O)CCCCOc1nn(CCCC[C@@H](C)O)c(=O)c2ccccc12`, the result in the data set with Pancreatic beta cell and in the data set with INS1 was Active. In addition, the remaining in data set [1] came to 75%.
Turning to `Cc1cnc2n(C)c(=O)n(CCCC[C@@H](C)O)c(=O)n12`, the outcome in the data set on Pancreatic beta cell and in the data set on INS1 was Active. The remaining in data set [1] amounted to 82%.
`C[C@@H](O)CCCCn1c(=O)c2c(ncn2C)n(C)c1=O` [LISOFYLLINE]: the result in the data set with Pancreatic beta cell and in the data set on INS1 was Active. The half-life in data set [2] was less than 3 min.
For `CC(C)NCC(O)COc1cccc2ccccc12` (configuration not stated) [PROPRANOLOL], the remaining in data set [1] came out at 34%.
For `C[C@]12CC[C@H]3[C@@H](CCC4=CC(=O)CC[C@@]43C)[C@@H]1CC[C@@H]2O` [TESTOSTERONE], the remaining in data set [1] was 9%.
Take `CC(=O)CC(c1ccccc1)c1c(O)c2ccccc2oc1=O` (configuration not stated) [WARFARIN]: the remaining in data set [1] stood at 105%.
